Measurements as given in ChEMBL document CHEMBL1201862, “PubChem BioAssay data set” (2004).
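48-hour exposure; five concentrations; linearly interpolated endpoints. GI50 marks 50% less growth.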 Calls of active or inactive are those of the source. No stated cut-off is given here; in the data, active = GI50 up to about 1.1 µM and inactive = higher.

How the values were obtained:
Assay in all cases: NCI tumour cell line growth inhibition, 48 h
UACC-62 = tested on: UACC-62
K562 = tested on: K562
U-251 = tested on: U-251
Malme-3M = tested on: Malme-3M
SNB-19 = tested on: SNB-19
NCI-H522 = tested on: NCI-H522
RPMI-8226 = tested on: RPMI-8226
NCI-H23 = tested on: NCI-H23
ACHN = tested on: ACHN
UACC-257 = tested on: UACC-257
CCRF-CEM = tested on: CCRF-CEM
TK-10 = tested on: TK-10
NCI-H226 = tested on: NCI-H226
HOP-92 = tested on: HOP-92
HCC 2998 = tested on: HCC 2998
CAKI-1 = tested on: CAKI-1
SNB-75 = tested on: SNB-75
RXF 393 = tested on: RXF 393
HCT-15 = tested on: HCT-15

Row | SMILES | GI50 (UACC-62) | GI50 (K562) | GI50 (U-251) | GI50 (Malme-3M) | GI50 (SNB-19) | GI50 (NCI-H522) | GI50 (RPMI-8226) | GI50 (NCI-H23) | GI50 (ACHN) | GI50 (UACC-257) | GI50 (CCRF-CEM) | GI50 (TK-10) | GI50 (NCI-H226) | GI50 (HOP-92) | GI50 (HCC 2998) | GI50 (CAKI-1) | GI50 (SNB-75) | GI50 (RXF 393) | GI50 (HCT-15) [µM]
1 | CN(C)c1ccc(/C=C(\C#N)C(=O)c2ccccc2)cc1Br | 51.3 µM (inactive) | 59.8 µM (inactive) | > 100 µM (inactive) | > 100 µM (inactive) | > 100 µM (inactive) | > 100 µM (inactive) | 25.8 µM (inactive) | > 100 µM (inactive) | > 100 µM (inactive) | > 100 µM (inactive) | 35.6 µM (inactive) | > 100 µM (inactive) | 39.3 µM (inactive) | > 100 µM (inactive) | > 100 µM (inactive) | > 100 µM (inactive) | 41.8 µM (inactive) | 14.6 µM (inactive) | 
2 | CCCCCC/C=C1\CCC(CN2CCCC2)C1=O (stereo not given) | 18.2 µM (inactive) | 3.87 µM (inactive) | 15.6 µM (inactive) | 19.2 µM (inactive) | > 38.5 µM (inactive) | 1.56 µM (inactive) | 2.01 µM (inactive) | 16.9 µM (inactive) | 18.3 µM (inactive) | 17.9 µM (inactive) | 4.49 µM (inactive) | 6.56 µM (inactive) | 19.1 µM (inactive) | 16.7 µM (inactive) | 17.5 µM (inactive) | > 38.5 µM (inactive) | 20.9 µM (inactive) | 19.4 µM (inactive) | 9.16
3 | COC1=C(C)C(=O)c2c(cc3c(c2O)C(C)(CCC=C(C)C)C(C)O3)C1=O (stereo not given) | 22.3 µM (inactive) | > 54.8 µM (inactive) | > 44.6 µM (inactive) | > 76.4 µM (inactive) | 19.2 µM (inactive) | > 100 µM (inactive) | > 100 µM (inactive) | 9.71 µM (inactive) | > 100 µM (inactive) | > 72.9 µM (inactive) | > 100 µM (inactive) | > 100 µM (inactive) | 17.6 µM (inactive) | > 100 µM (inactive) | 42.1 µM (inactive) | > 100 µM (inactive) | 19.9 µM (inactive) | > 100 µM (inactive) | 27.4
4 | O=C1c2c(c3c4ccccc4[nH]c3c3[nH]c4ccccc4c23)C(=O)N1Cc1ccccc1 | 4.25 µM (inactive) | 3.05 µM (inactive) | 2.33 µM (inactive) | 3.54 µM (inactive) | 2.8 µM (inactive) | 1.77 µM (inactive) | 2.36 µM (inactive) | 2.08 µM (inactive) | 2.87 µM (inactive) | 3.75 µM (inactive) | 2.96 µM (inactive) | 4.25 µM (inactive) | 2.1 µM (inactive) | 2.43 µM (inactive) | 4.27 µM (inactive) | 3.65 µM (inactive) | 3.09 µM (inactive) | 1.51 µM (inactive) | 2.06
